The test system of data set [1] is healthy volunteers. Kind of data set: Adverse effects observed in subjects of the stimulation study. Type of data set: in vivo, human. The settings on record: single dose of 20 mg. How it is done:
(§1) A neurophysiological examination was carried out before and 24 hours after administration of a single dose of 20 mg of rimonabant.
Nine healthy volunteers (average age±S.D 32.1±5.8 years) participated in the experiments using TMS (transcranial magnetic stimulation) and six participated in the experiments with electric stimulation. All subjects gave their informed written consent. The study was developed in accordance with the Declaration of Helsinki and approved by the Local Ethics Committee. The magnetic stimulation was developed using two Magstim 200 high-power magnetic stimulators (Magstim Co., Whitland, UK) connected to the Bistim Module during all measurements. A figure of 8 shaped coil was placed with an external diameter of 9 cm on the right motor cortex, in optimal position of the head to provoke a motor response in the contralateral first dorsal interosseous. The current induced a flow in the posteroanterior direction. The rest motor threshold (RMT) was defined as the stimulus of minimum intensity capable of producing a motor evoked response at rest (of around 50 μV in 50% of the 10 attempts). The active motor threshold (AMTtms) was defined as the stimulus of minimum intensity capable of producing a motor evoked response (around 200 μV in 50% of the 10 attempts) during the isometric contraction of the muscle tested at approximately 20% of the maximum. A constant voluntary contraction level was maintained by electromyogram display oscilloscope placed in front of the subject.
In six subjects we also performed electric stimulation of the motor cortex during voluntary contraction. This was performed with a Digitimer D180A digital stimulator with a time constant of 50 μs. The cathode was placed in the vertex and the anode at 7 cm laterally (anodic stimulation). We evaluate the active electric motor threshold (AMTtes) defined as the stimulus of minimum intensity capable of producing a motor evoked response of around 200 μV in 50% of ten attempts during the voluntary contraction.

Data set [2] concerns healthy volunteers. Kind of data set: Active motor threshold by transcranial electric stimulation (TES). The class given is in vivo, human. The conditions noted are these: % of maximum stimulator output; 24 hours after single dose of 20 mg; six subjects; baseline 19.6±6%; P=0.0164; ±SD. The method, then:
(§2) The objective of the present experiments was to use transcranial magnetic and electric stimulation to test the effects of a single dose of 20 mg of rimonabant in motor cortex and spinal motor neuron excitability.
as §1
(§3) Using transcranial magnetic stimulation (TMS) we evaluate the electromyographic response thresholds in the first dorsal interosseous (FDI) at rest and during voluntary contraction. Using transcranial electric stimulation (TES) we evaluate the electromyographic response thresholds in the first dorsal interosseous during voluntary contraction. Transcranial electric stimulation tends to activate the axons of the corticospinal neurons in the white matter whilst magnetic stimulation activates the same fibres trans-synaptically (Hallett, 2000 Jul. 13, 406 (6792):147-50). Therefore, the response evoked electrically are not as sensitive to changes in cortical excitability as those evoked by magnetic stimulation. We also evaluate short-latency intracortical facilitation (ICF). ICF was studied using the technique of Kujirai et al. (J Physiol. 1993 Nov; 471:501-19).
In six subjects we also performed electric stimulation of the motor cortex during voluntary contraction. This was performed with a Digitimer D180A digital stimulator with a time constant of 50 μs. […]

The test system of the next data set is Male adult Wistar rats. Kind of data set: Forced run on conveyer belt (fatigue), uninjured rats. Type of data set: in vivo, rat. The settings on record: 0.25 mg/Kg intraperitoneal; for effect on latency (Δ latency) in forced run: after injection, compared with carrier, result in words; for improvement in resistance to fatigue (decrease in latency) with respect to carrier: single injection, average. The method, then:
(§4) Animals. Male adult Wistar rats were used (300-350 g; 12 weeks old), obtained from Harlan-Interfauna Ibérica (Barcelona, Spain) kept in our animal house in a light:dark cycle of 12:12 hours, receiving food and water ad libitum. The animals were handled in accordance with the guides published in the “NIH Guide for the Care and Use of Laboratory Animals”, the principles covered by the “Guidelines for the Use of Animals in Neuroscience Research” published by the American Neuroscience Society, and the European Union Guidelines (Directive 86/609/EEC). The rats were assigned to the groups with injection of carrier or the CB1 antagonists/inverse agonists (rimonabant (SR141716A) or AM281). Five uninjured animals and 3 injured animals were used for each group.
(§5) The rats were acclimatized to the conveyer belt making them walk on the belt at low speed. The forced run protocol consisted of a first session of 15 minutes run (20 m/min, 5% inclination) followed by a second session 2 hours later (Fatigue 2 h). The same protocol was repeated the following day to study the continuance of the effects observed with the treatment (Fatigue 24 h). In order to keep the rats running throughout the study, mild electric shock was used (20 mV, 1.67 Hz) and, possible, gentle touches by the experimenter's hand. The drugs were administered immediately after the first session of the first day. The treatments consisted of a single intraperitoneal injection of SR141716A (0.25 mg/Kg), or AM281 (0.25 mg/Kg), or carrier (2.5% Bovine Serum Albumin, SIGMA, Spain, in 0.9% NaCl).
Latency was defined as the number of seconds during the experiment where the animals touched the grille located at the end of the conveyer belt. The animals that remained more than twice at the electric grille receiving discharges of over 10 seconds were considered exhausted and were returned to their cages. In this case, latency time was also considered the remaining time until the end of the protocol. The latency increase (αlatency) was calculated as the difference between the action of the rat at each time minus the values of the first session. Therefore, the negative measurements reflect a decrease in latency, and, therefore, an improvement in motor capacity.

For data set [3], the system named is healthy volunteers. Kind of data set: Motor thresholds by transcranial magnetic stimulation (TMS), first dorsal interosseous. The class given is in vivo, human. The conditions noted are these: % of maximum stimulator output, 24 hours after single dose of 20 mg, ±SD. How it is done:
as §2, §1
as §3, with “471:501-19). […]” for “471:501-19).”

Data set [4] concerns healthy volunteers. Kind of data set: Intracortical facilitation (ICF), paired-pulse TMS. Type of data set: in vivo, human. The conditions noted are these: % of response to test stimulus without conditioning stimulus; 24 hours after single dose of 20 mg; baseline 117±21%; P=0.0212; ±SD. How it is done: as §1
as §3, with “471:501-19). […]” for “471:501-19).”
The response facilitation conditional upon the three different ISIs studied was then averaged to give a magnified average value. The amplitude of the motor evoked potentials was expressed as percentages of amplitude of the motor evoked potentials of the tests. […]

In data set [5] the test system is rats with moderate spinal cord lesion. Kind of data set: Modified forced run on conveyer belt, rats with moderate spinal cord lesion. Type of data set: in vivo, rat. The conditions noted are these: 0.25 mg/Kg intraperitoneal; for improvement in resistance to fatigue (decrease in latency) with respect to carrier: 7 days after lesion, average. How it is done: as §4
as §5, with “The treatments consisted of a single intraperitoneal injection of SR141716A (0.25 mg/Kg), or AM281 (0.25 mg/Kg), or carrier (2.5% Bovine Serum Albumin, SIGMA, Spain, in 0.9% NaCl).” left out
Latency was defined as the number of seconds during the experiment where the animals touched the grille located at the end of the conveyer belt. […] The latency increase (αlatency) was calculated as the difference between the action of the rat at each time minus the values of the first session. […]
6 animals were subjected to a moderate spinal cord lesion by, using the “Infinite Horizon” motorized system (Precision Systems & Instrumentation, [PSI], Lexington, Ky.). […] The hydration state was monitored as was the presence of possible infections in the animals until the end of the experiment. […]

On to `Cc1c(C(=O)NN2CCCCC2)nn(-c2ccc(Cl)cc2Cl)c1-c1ccc(Cl)cc1` [rimonabant, N-(piperidin-1-yl)-5-(4-chlorophenyl)-1-(2,4-dichlorophenyl)-4-methyl-1H-pyrazole-3-carboxamide], for which, in the data set with healthy volunteers [1] (affected subjects), the “duration of agitation and anxiety, average” value came to 6 h. Further, the effects on attention result in the data set on healthy volunteers [1] (healthy volunteers) is given as “moderate”. Also, the “subjects with agitation and anxiety” value with healthy volunteers [1] (nine healthy volunteers) is “Three of the subjects experienced agitation and anxiety”. Besides, the subjects with nauseas result in the data set on healthy volunteers [1] (nine healthy volunteers, during 24 h) is “one suffered nauseas”. Besides, in the data set on healthy volunteers [2], the “active motor threshold using transcranial electric stimulation (AMTtes), mean” value amounted to 17.5±6%. Further, the “effect on latency (Δ latency) in forced run” value in the data set on Male adult Wistar rats is “decreased latency”; in data set [5] (2 hours after injection compared with carriers, result in words), “decreased latency”. In addition, the “improvement in resistance to fatigue (decrease in latency) with respect to carrier” value in the data set with Male adult Wistar rats (2 hours after fatigue) was 75 s; with Male adult Wistar rats (24 hours after fatigue) it was 125 s; in data set [5] (2 hours after fatigue), 136 s; in data set [5] (24 hours after fatigue) it was 200 s. In the data set with healthy volunteers [3] (baseline 39±4%, P=0.0008), the “active motor threshold using transcranial magnetic stimulation (AMTtms), mean” value came to 35.5±4%. For the same compound, the “resting motor threshold using transcranial magnetic stimulation (RMT), mean” value in the data set on healthy volunteers [3] (baseline 48±6%, P=0.0775 (not significant)) turned out to be 46.5±6%. Also, the “intracortical facilitation (ICF), mean” value with healthy volunteers [4] turned out to be 150±40%.

Take `Cc1c(C(=O)NN2CCOCC2)nn(-c2ccc(Cl)cc2Cl)c1-c1ccc(I)cc1` [AM281]: the “effect on latency (Δ latency) in forced run” value in the data set on Male adult Wistar rats is recorded as “decreased latency”. The “improvement in resistance to fatigue (decrease in latency) with respect to carrier” value with Male adult Wistar rats (2 hours after fatigue) came to 185 s; in the data set with Male adult Wistar rats (24 hours after fatigue), 207 s.

For the origin of these results see patent US9592237B2, “Use of CB1 antagonists and/or inverse agonists for the preparation of drugs that increase motor neuron excitability” (Fundacion Del Hospital Nacional De Paraplejicos Para La …, priority 2009, dated 2017).
